Measurements reported in patent US6699459B2, “Methods of treating lung inflammation” (The Board of Regents of the University of Texas System, priority 2001, dated 2004).

Legend:
human RANTES promoter = experiment: RANTES promoter luciferase reporter in RSV-infected A549 cells; assay type: cell-based; conditions: RSV 24 hours, 400 μM
Source text: Plasmid construction and cell transfection. A fragment of the human RANTES promoter spanning from −220 to +55 nucleotides (nt), relative to the mRNA start site designated +1 was cloned into the luciferase reporter gene vector pGL2 (Promega, Madison, Wis.) and defined as pGL2-220. Site mutations of the RANTES ISRE in the context of pGL2-220 plasmid were introduced by PCR using the following upstream and downstream mutagenic primers (mutations in lower cases): […]
Logarithmically growing A549 cells were transfected in triplicate in 60 mm petri dishes by DEAE-Dextran, as previously described (20). Cells were incubated in 2 ml of HEPES buffered Dulbecco's modified Eagle's medium (DMEM) (10 mM Hepes, pH 7.4) containing 20 μl of 60 mg/ml DEAE-Dextran (Amersham Pharmacia Biotec, Arlington Heights, Ill.) premixed with 6 μg of RANTES-pGL2 plasmids and 1 μg cytomegalovirus (CMV)-β galactosidase internal control plasmid. After 3 hours, media was removed and 0.5 ml of 10% (v/v) DMSO in phosphate buffered saline (PBS) was added to the cells for 2 minutes. Cells were washed with PBS and cultured overnight in 10% FBS/DMEM. The next morning, cells were infected with RSV and at 24 hours post-infection cells were lysed to measure independently luciferase and β-galactosidase reporter activity, as previously described (20). Luciferase was normalized to the internal control β-galactosidase activity. […]

IRF-1 GAS = experiment: EMSA of IRF-1 GAS binding complexes, nuclear extracts of RSV-infected A549 cells; assay type: cell-based, human; conditions: RSV 6 hours, 400 μM
Description: Electrophoretic mobility shift assay (EMSA): Nuclear extracts of uninfected and infected A549 cells were prepared using hypotonic/nonionic detergent lysis, as previously described (20). Proteins were normalized by protein assay (Protein Reagent, Bio-Rad, Hercules, Calif.) and used to bind to a duplex oligonucleotide corresponding to the IRF-1 gamma interferon activated sequence (GAS) and IRF-7 ISRE, whose sequences are shown below.
DNA-binding reactions contained 10-15 μg nuclear proteins, 5% glycerol, 12 mM HEPES, 80 mM NaCl, 5 mM DTT, 5 mM Mg2Cl, 0.5 mM EDTA, 1 μg of poly dI-dC and 40,000 cpm of ^32P-labeled double-stranded oligonucleotide in a total volume of 20 μl. The nuclear proteins were incubated with the probe for 15 minutes at room temperature and then fractionated by 4% nondenaturing polyacrylamide gels (PAGE) in 0.5× TBE buffer (22 mM Tris-HCl, 22 mM boric acid, 0.25 MM EDTA, pH 8), at 120 volts. After electrophoretic separation, gels were dried and exposed for autoradiography using Kodak XAR film at −70° C. using intensifying screens. In the gel mobility supershift, commercial antibodies against specific transcription factors were added to the binding reactions and incubated on ice for one hour prior to fractionation on 6% PAGE.

IRF-3 [1] = experiment: Western blot of nuclear IRF-3 in RSV-infected A549 cells; assay type: cell-based, human
Description: (§1) Western Immunoblot. Total cell lysates and cytoplasmic and nuclear proteins were prepared as previously described, fractionated by SDS-PAGE and transferred to PVDF membrane (20). Membranes were blocked with 5% albumin in TBS-Tween and incubated overnight with a rabbit polyclonal antibody to IRF-1, -3 and -7 (Santa Cruz Biotech, Santa Cruz, Calif.). For secondary detection, a horseradish-coupled anti-rabbit or anti-mouse antibody was used in the enhanced chemiluminescence assay (Amersham Pharmacia Biotec, Arlington Heights, Ill.).

RANTES mRNA = experiment: Northern blot of RANTES mRNA in RSV-infected A549 cells; assay type: cell-based, human; conditions: 400 μM
Description: Cell culture and infection of epithelial cells with RSV. A549, human alveolar type II-like epithelial cells (ATCC, Manassas, Va.), were maintained in F12K medium containing 10% (v/v) fetal bovine serum (FBS), 10 mM glutamine, 100 IU/ml penicillin and 100 μg/ml streptomycin. Small alveolar epithelial cells (SAE) were obtained from Clonetics (San Diego, Calif.) and grown according to the company instructions. Cell monolayers were infected with RSV at multiplicity of infection (MOI) of 1 (unless otherwise stated), as described (17). An equivalent amount of a 20% sucrose solution was added to uninfected A549 cells, as a control. For the antioxidant experiments, cells were pretreated with the antioxidants for one hour and then infected in the presence of the antioxidants. Since BHA was diluted in ethanol, equal amounts of ethanol were added to untreated cells, as a control. Total number of cells, cell viability and viral replication, following antioxidant treatment, were measured by trypan blue exclusion and by plaque assay, respectively. Northern Blot. Total RNA was extracted from control and infected A549 cells by the acid guanidium thiocyanate-phenol chloroform method (18). Twenty micrograms of RNA were fractionated on a 1.2% agarose-formaldehyde gel, transferred to nylon membranes and hybridized to a radiolabeled RANTES, IRF-1, -3 and -7 cDNAs, as previously described (19). […]

IRF-3 [2] = experiment: Microaffinity isolation/Western blot for IRF-3 bound to RANTES ISRE; assay type: cell-based, human; conditions: nuclear extracts, RSV 12 hours
Description: Microaffinity isolation assay. Microaffinity purification of proteins binding to the RANTES ISRE was performed using a two-step biotinylated DNA-streptavidin capture assay (20). In this assay, duplex oligonucleotides are chemically synthesized containing 5′ biotin (Bt) on a flexible linker (Genosys, the Woodlands, TX). Four hundred micrograms of 12 hours-infected A549 cells nuclear extracts were incubated at 4° C. for 30 minutes with 50 pmoles of Bt ISRE, in the absence or presence of 10 fold molar excess of non-biotinylated ISRE wild type (WT) or mutated (MUT). The binding buffer contained 8 μg poly dI/dC (as nonspecific competitor) and 5% (v/v) glycerol, 12 mM HEPES, 80 mM NaCl, 5 mM DTT, 5 mM Mg2Cl, 0.5 mM EDTA. One hundred μl of a 50% slurry of pre-washed streptavidin-agarose beads was then added to the sample, and incubated at 4° C. for an additional 20 minutes with gentle rocking. Pellets were washed twice with 500 μl binding buffer, and the washed pellets were resuspended in 100 μl 1×SDS-PAGE buffer, boiled and fractionated on a 10% SDS-polyacrylamide gel. After electrophoresis separation, proteins were transferred to polyvinylidene difluoride (PVDF) membrane for Western blot analysis.
Western Immunoblot. Total cell lysates and cytoplasmic and nuclear proteins were prepared as previously described, fractionated by SDS-PAGE and transferred to PVDF membrane (20). […]

IRF-3 [3] = experiment: Western blot of IRF-3 in total cell lysates of RSV-infected A549 cells; assay type: cell-based, human; conditions: whole cell extracts, RSV 12 hours, 400 μM
Description: as §1

## COc1ccc(O)c(C(C)(C)C)c1 [BHA, butylated hydroxyanisol]
Human RANTES promoter
  RSV-induced luciferase activity (RANTES promoter): almost completely abolished
IRF-1 GAS
  RSV-induced STAT binding to the IRF-1 GAS: completely abolished
IRF-3 [1]
  the other RSV-inducible nuclear form of IRF-3: not affected
RANTES mRNA; 6 and 12 hours post-infection
  RSV-induced RANTES mRNA induction: completely inhibited
RANTES mRNA; 24 hours post-infection
  RSV-induced RANTES mRNA induction: greatly reduced
IRF-3 [2]
  IRF-3 binding to RANTES ISRE: almost completely abolished
IRF-3 [3]
  RSV-induced IRF-3 mobility shift: almost completely abolished
